Reference: patent publication US6239171A, “Tocotrienols and tocotrienol-like compounds and methods for their use” (Lipogenics, Inc., priority 1998, dated 2001)
Several values for one entry are separate records, joined by “and”; a condition that tells them apart may be missing. Equal values may be shown once.

Experiments:
[1] = system: cholesterol 7α-hydroxylase; test: Cholesterol 7α-hydroxylase activity in isolated chicken hepatocytes; assay type: cell-based
Description: (§1) This study measured the effects of three tocotrienols isolated from rice bran on cholesterol-related enzyme activity in hepatocytes isolated from livers of 8-week old female chickens. The chickens were fed the chick mash diet for 8 weeks. They were then fasted for 40 hours and finally refed for 48 hours before sacrifice. The hepatocytes were then prepared following standard methods.
(§2) Each compound was isolated from TRF using the following protocol: A bond Elute amine column was equilibrated with 2 ml hexane. 10 mg of TRF (dissolved in 0.5 ml hexane) was bound to the amine column. The column was washed with 1 ml of hexane, then with 1 ml of 3% isopropanol in hexane. P-21 and P-25 were eluted off the column with 5% isopropanol in hexane. Then using 10% isopropanol in hexane, the impurity P-20 was eluted. α-tocotrienol was also tested.

[2] = system: hypercholesterolemic swine; test: Body weight gain and feed conversion efficiency in hypercholesterolemic swine; assay type: in vivo; details: control diet + 50 ppm
Description: Each group of three 5-month old swine was administered either a control diet or a control diet supplemented with 50 ppm of TRF or 50 ppm of an individual tocotrienol. The samples were prepared as described in Example 11. After a 12 hour fast, serum and plasma samples were taken a 0 hrs, 21 days and 42 days from the start of the feeding period. After taking serum and plasma samples from the pigs at the end of the 42 day period, all of the swine were fasted for a total of 40 hours, followed by a 48 hour refeeding period. One swine from each group was sacrificed at that time and the liver, intestine, lung, heart, loin muscle, adipose tissue and ham muscle were removed.

[3] = biological target: T1, HMG-CoA reductase (Homo sapiens, UniProt P04035); test: HMG-CoA reductase activity in isolated chicken hepatocytes; assay type: cell-based
T1 construct: hepatocytes isolated from livers of 8-week old female chickens; endogenous in cells; host or cells: primary chicken hepatocytes
T1 sequence (P04035 1-888): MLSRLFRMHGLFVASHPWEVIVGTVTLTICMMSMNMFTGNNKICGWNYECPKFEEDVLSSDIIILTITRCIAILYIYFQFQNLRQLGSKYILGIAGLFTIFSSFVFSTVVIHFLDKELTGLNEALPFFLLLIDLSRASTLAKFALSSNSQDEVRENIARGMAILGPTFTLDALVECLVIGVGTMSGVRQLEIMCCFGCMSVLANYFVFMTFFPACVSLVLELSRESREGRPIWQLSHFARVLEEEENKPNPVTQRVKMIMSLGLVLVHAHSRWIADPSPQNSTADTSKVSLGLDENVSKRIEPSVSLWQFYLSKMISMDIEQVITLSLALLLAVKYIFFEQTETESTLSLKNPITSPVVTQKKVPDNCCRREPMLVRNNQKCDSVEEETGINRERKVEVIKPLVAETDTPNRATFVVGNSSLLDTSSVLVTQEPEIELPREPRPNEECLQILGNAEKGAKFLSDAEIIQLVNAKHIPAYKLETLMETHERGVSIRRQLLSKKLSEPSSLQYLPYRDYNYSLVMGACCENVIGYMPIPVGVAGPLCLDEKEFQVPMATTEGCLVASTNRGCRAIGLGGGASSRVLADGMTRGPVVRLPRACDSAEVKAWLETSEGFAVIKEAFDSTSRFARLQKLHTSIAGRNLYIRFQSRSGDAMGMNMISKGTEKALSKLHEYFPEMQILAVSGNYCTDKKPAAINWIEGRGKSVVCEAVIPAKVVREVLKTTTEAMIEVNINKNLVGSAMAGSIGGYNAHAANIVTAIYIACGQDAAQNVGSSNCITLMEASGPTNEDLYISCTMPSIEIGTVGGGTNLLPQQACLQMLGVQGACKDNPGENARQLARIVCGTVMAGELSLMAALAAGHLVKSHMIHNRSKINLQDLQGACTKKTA
Description: as §1, §2
We next measured the effects of various tocotrienols and tocotrienol-like compounds isolated from rice bran on the activity of HMG-CoA reductase. 20.0 g of stabilized rice bran was extracted with 200.0 ml of methanol to remove various UV absorbing impurities and tocotrienols (6.7 mg total). This step was repeated four times. The remaining residue was dried under vacuum in a desiccator and then heated at 180° C. for 2 hours under 30 psi pressure. Then the dried residue was extracted again with 200.0 ml methanol (3.4 mg). […]

[4] = biological target: T2, Fatty Acid Synthase (Gallus gallus, UniProt P12276); test: Fatty acid synthase activity in isolated chicken hepatocytes; assay type: cell-based
T2 construct: hepatocytes isolated from livers of 8-week old female chickens; endogenous in cells; host or cells: primary chicken hepatocytes
T2 sequence (P12276 2-2512 limits assumed): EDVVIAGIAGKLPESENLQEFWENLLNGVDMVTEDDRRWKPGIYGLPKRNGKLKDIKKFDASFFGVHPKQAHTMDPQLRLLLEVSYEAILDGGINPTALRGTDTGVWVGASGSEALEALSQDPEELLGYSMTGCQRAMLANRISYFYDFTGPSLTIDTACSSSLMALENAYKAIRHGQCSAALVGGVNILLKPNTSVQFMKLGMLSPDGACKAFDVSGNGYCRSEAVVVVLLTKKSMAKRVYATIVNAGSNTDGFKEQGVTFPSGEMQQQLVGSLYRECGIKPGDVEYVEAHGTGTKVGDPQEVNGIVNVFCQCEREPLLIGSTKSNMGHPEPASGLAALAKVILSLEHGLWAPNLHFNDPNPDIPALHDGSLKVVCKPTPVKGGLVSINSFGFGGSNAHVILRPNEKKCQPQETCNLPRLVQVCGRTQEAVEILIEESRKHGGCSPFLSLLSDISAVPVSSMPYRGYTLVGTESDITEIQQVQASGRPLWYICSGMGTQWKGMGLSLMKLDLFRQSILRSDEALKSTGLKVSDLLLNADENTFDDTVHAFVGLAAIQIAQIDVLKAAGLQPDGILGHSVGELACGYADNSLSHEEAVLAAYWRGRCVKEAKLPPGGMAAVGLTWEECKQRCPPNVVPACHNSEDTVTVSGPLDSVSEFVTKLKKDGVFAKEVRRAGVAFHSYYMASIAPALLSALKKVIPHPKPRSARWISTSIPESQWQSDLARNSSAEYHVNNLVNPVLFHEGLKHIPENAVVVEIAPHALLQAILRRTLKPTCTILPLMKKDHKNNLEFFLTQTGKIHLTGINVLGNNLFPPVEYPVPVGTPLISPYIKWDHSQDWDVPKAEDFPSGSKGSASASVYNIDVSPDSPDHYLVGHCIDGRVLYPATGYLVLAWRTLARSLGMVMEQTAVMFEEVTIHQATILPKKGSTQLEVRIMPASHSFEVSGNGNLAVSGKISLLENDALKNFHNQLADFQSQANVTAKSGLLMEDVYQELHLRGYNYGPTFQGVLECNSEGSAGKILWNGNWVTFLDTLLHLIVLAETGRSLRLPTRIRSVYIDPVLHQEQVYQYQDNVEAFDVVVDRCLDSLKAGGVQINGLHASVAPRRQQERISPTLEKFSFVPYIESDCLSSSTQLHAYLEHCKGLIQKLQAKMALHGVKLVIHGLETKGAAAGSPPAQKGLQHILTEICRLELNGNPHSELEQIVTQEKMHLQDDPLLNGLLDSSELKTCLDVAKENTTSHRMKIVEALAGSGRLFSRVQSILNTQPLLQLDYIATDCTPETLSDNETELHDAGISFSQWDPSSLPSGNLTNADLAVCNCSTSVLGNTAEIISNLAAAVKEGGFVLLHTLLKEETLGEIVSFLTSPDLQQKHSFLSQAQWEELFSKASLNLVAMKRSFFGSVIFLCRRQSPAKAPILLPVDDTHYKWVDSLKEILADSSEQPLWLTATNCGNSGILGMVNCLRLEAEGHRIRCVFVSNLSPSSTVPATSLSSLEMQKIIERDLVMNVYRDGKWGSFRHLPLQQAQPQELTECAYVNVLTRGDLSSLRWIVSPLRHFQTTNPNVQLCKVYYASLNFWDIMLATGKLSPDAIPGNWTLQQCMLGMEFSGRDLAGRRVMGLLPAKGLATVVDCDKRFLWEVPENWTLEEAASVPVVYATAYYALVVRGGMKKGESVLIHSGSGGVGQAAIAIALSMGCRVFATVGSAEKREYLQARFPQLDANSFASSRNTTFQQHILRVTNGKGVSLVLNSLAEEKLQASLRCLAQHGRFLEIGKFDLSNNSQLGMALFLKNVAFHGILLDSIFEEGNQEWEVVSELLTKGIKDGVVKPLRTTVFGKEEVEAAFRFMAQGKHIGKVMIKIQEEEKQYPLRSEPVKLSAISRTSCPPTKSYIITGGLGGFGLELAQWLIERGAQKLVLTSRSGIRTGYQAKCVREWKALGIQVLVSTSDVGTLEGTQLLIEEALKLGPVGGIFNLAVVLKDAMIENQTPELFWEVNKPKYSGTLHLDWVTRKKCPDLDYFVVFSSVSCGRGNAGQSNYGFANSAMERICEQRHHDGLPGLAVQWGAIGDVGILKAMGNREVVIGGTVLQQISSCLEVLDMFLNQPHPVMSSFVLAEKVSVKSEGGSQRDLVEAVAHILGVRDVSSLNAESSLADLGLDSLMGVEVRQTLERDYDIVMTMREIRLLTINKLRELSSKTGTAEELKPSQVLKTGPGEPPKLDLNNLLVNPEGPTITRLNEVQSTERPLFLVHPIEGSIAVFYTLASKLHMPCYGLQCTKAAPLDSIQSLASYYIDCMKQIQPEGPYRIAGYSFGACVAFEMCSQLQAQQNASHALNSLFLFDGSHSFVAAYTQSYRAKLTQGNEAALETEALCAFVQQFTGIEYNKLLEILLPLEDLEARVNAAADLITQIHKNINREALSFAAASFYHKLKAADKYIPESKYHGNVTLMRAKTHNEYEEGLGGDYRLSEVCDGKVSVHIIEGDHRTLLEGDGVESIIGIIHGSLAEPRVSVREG
Description: as §1, §2

[5] = system: human peripheral blood neutrophils; test: Release of superoxide in human peripheral blood neutrophils; assay type: cell-based; details: for 5×10^5 cells/hour, phorbol myrstate acetate
Excerpt: We determined the effect of a known tocotrienol, γ-T3, on the release of superoxide in human peripheral blood neutrophils. Neutrophils are an extracellular source of oxygen free radicals. Once activated, these neutrophils can attach to endothelial tissue where they release a potent toxin, superoxide. Superoxide amplifies the inflammatory response and impairs local circulation of the blood.
The neutrophils we tested were isolated by density centrifugation on Ficoll-Hypaque gradients using conventional methods (see E. Serbinova et al., "Free Radical Recycling and Intramembrane Mobility in the Antioxidant Properties of α-Tocopherol and α-Tocotrienol", Free Rad. Bio. and Med., 10, pp. 263-75 (1991)). The neutrophils were then placed in a 96-well plate. γ-T3 and phorbol myrstate acetate were added to the wells at the same time. The secretion of superoxide anion was measured as the superoxide dismutase-inhibitable reduction of ferricytochrome C.

| Compound | Cholesterol 7α-hydroxylase ([1]; 10.0 μg/mL) | Cholesterol 7α-hydroxylase, percentage of 0.0 μg/mL ([1]; 10.0 μg/mL) | Cholesterol 7α-hydroxylase ([1]; 20.0 μg/mL) | Cholesterol 7α-hydroxylase, percentage of 0.0 μg/mL ([1]; 20.0 μg/mL) | Cholesterol 7α-hydroxylase ([1]; 40.0 μg/mL) | Cholesterol 7α-hydroxylase, percentage of 0.0 μg/mL ([1]; 40.0 μg/mL) | Cholesterol 7α-hydroxylase ([1]; 80.0 μg/mL) | Cholesterol 7α-hydroxylase, percentage of 0.0 μg/mL ([1]; 80.0 μg/mL) | increase of feed conversion efficiency [2] | maximum reduction in activity of HMG-CoA reductase [3] | Fatty Acid Synthase ([4]; 10.0 μg/mL) | Fatty Acid Synthase, percentage of 0.0 μg/mL ([4]; 10.0 μg/mL) | Fatty Acid Synthase ([4]; 20.0 μg/mL) | Fatty Acid Synthase, percentage of 0.0 μg/mL ([4]; 20.0 μg/mL) | Fatty Acid Synthase ([4]; 40.0 μg/mL) | Fatty Acid Synthase, percentage of 0.0 μg/mL ([4]; 40.0 μg/mL) | Fatty Acid Synthase ([4]; 80.0 μg/mL) | Fatty Acid Synthase, percentage of 0.0 μg/mL ([4]; 80.0 μg/mL) | amount of superoxide released (control 19.7 nmole) ([5]; concentration 10^-5) | amount of superoxide released (control 19.7 nmole) ([5]; concentration 10^-6) |
| --- | --- | --- | --- | --- | --- | --- | --- | --- | --- | --- | --- | --- | --- | --- | --- | --- | --- | --- | --- | --- |
| CC(C)=CCC/C(C)=C/CC/C(C)=C/CCC1CCc2cc(O)ccc2O1 (stereo not shown) [P25, 3,4-dihydro-2-(4,8,12-trimethyltrideca-3'(E),7'(E),11'-trienyl)-2H-1-benzopyran-6-ol] | 2.33 pmol/min/mg | 100.9% | 2.37 pmol/min/mg | 102.61% | 2.44 pmol/min/mg | 105.6% | 2.37 pmol/min/mg | 102.6% | 10% | 46.6% and 58.6% | 16.2 nmol/min/mg | 94.2% | 14.3 nmol/min/mg | 83.1% | 12.7 nmol/min/mg | 73.8% | 12.1 nmol/min/mg | 70.3% | – | – |
| CC(C)=CCC/C(C)=C/CC/C(C)=C/CCC1(C)CCc2cc(O)c(C)c(C)c2O1 (stereo not shown) [γ-T3, γ-tocotrienol, reference compound] | – | – | – | – | – | – | – | – | – | – | – | – | – | – | – | – | – | – | 0 nmol | 8.0 nmol |
| CC(C)=CCC/C(C)=C/CC/C(C)=C/CCC1(C)CCc2cc(O)ccc2O1 (stereo not shown) [P21, 3,4-dihydro-2-methyl-2-(4,8,12-trimethyltrideca-3' (E),7'(E),11'-trienyl)-2H-1-benzopyran-6-ol] | 2.41 pmol/min/mg | 104.3% | 3.40 pmol/min/mg | 103.9% | 2.39 pmol/min/mg | 103.5% | 1.37 pmol/min/mg | 102.6% | 7% | – | 14.3 nmol/min/mg | 83.1% | 12.7 nmol/min/mg | 73.8% | 11.8 nmol/min/mg | 68.6% | 10.2 nmol/min/mg | 59.3% | – | – |
